Results published in the NIST ThermoML archive (doi:10.1021/acs.jced.5b00922).
± gives the expanded uncertainty stated by the source.

Assays:
[1] = Liquid; for viscosity: Capillary tube (Ostwald / Ubbelohde) method; for mass density: Pycnometric method
[2] = mn = molality of the nth substance listed, in mol/kg; conditions: 100 kPa, Liquid, m1 = 4.416; for viscosity: Capillary tube (Ostwald / Ubbelohde) method; for mass density: Pycnometric method; for binary diffusion coefficient: absorption column
[3] = wn = mass fraction of the nth substance listed; conditions: 100 kPa, Liquid; for viscosity: Capillary tube (Ostwald / Ubbelohde) method; for mass density: Pycnometric method

CN(CCO)CCO [N-methyldiethanolamine]
[1], 100 kPa
Conditions	mass density [kg/m3]	viscosity [mPa·s]
298 K	1036.7 ± 4.8	77.6 ± 1.9
308 K	1029.4 ± 4.8	44.33 ± 1.2
323 K	1018.5 ± 4.9	22.3 ± 0.78

NCCCNCCCN [bis(3-aminopropyl)amine]
[1], 101.33 kPa
Conditions	mass density [kg/m3]	viscosity [mPa·s]
298 K	927.36 ± 4.2	8.51 ± 0.15
303 K	923.34 ± 4.2	7.04 ± 0.14
308 K	919.32 ± 4.2	5.92 ± 0.13
313 K	915.28 ± 4.2	5.05 ± 0.13
318 K	911.18 ± 4.2	4.62 ± 0.12
323 K	906.97 ± 4.2	3.99 ± 0.12

CN(CCO)CCO [N-methyldiethanolamine] + O
[2]
Conditions	binary diffusion coefficient [m2/s]	mass density [kg/m3]	viscosity [mPa·s]
298 K	8.2e-10	1036.91 ± 4.5	3.851 ± 0.091
303 K	9.5e-10	1034.27 ± 4.4	3.22 ± 0.091
308 K	1.09e-09	1030.94 ± 4.5	2.7 ± 0.086
313 K	1.24e-09	1027.61 ± 4.5	2.215 ± 0.08
318 K	1.37e-09	1024.05 ± 4.5	1.89 ± 0.075
323 K	1.54e-09	1020.68 ± 4.5	1.62 ± 0.07

[3]
Conditions	mass density, w1 = 0.1 [kg/m3]	mass density, w1 = 0.2 [kg/m3]	mass density, w1 = 0.3 [kg/m3]	mass density, w1 = 1 [kg/m3]	viscosity, w1 = 0.1 [mPa·s]	viscosity, w1 = 0.2 [mPa·s]	viscosity, w1 = 0.3 [mPa·s]	viscosity, w1 = 1 [mPa·s]
298 K	1005.7 ± 4.7	1015 ± 4.7	1024.6 ± 4.7	1036.7 ± 4.8	1.295 ± 0.1	1.925 ± 0.11	3.031 ± 0.11	77.6 ± 1.9
308 K	1001.9 ± 4.7	1010.9 ± 4.7	1020.2 ± 4.7	1029.4 ± 4.8	1.007 ± 0.1	1.468 ± 0.1	2.251 ± 0.11	44.33 ± 1.2
323 K	995.9 ± 4.7	1003.4 ± 4.7	1012 ± 4.7	1018.5 ± 4.9	0.748 ± 0.1	1.033 ± 0.1	1.491 ± 0.11	22.3 ± 0.78
